Assay results: US20210330611A1, “THERAPY FOR NEUROLOGICAL DISEASES/DISORDERS” (priority 2020, published 2021)
Several values for one entry are separate records, joined by “and”; a condition that tells them apart may be missing. Equal values may be shown once. Where a name gives a salt, the structure may show the parent alone. Read-outs that look alike come from different tables or passages of the source.

Columns and labels:
[1] = tested on: fibrin-induced microglia activation; experiment: Image-based assay of fibrin-induced microglia activation (HTS and dose response); assay type: cell-based, rat; conditions: for inhibition at 10 µM: Rattus norvegicus, Microglia, read-out: Fibrin % inhibition
[2] = tested on: LPS-induced microglia activation; experiment: Image-based assay of LPS-induced microglia activation (HTS and dose response); assay type: cell-based, rat
[3] = tested on: fibrin- and LPS-induced microglia activation; experiment: cells; assay type: cell-based, rat; conditions: for inhibition at 10 µM: Rattus norvegicus, Microglia
[4] = tested on: primary rat microglia;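 for Fibrin % cell toxicity: share of dead cells sized under 150 µm2 at 10 µM in fibrin-stimulated microglia HTS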
[5] = tested on: primary rat microglia; remark: listed apart in the source;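 for Fibrin % cell toxicity: share of dead cells sized under 150 µm2 at 10 µM in fibrin-stimulated microglia HTS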
[6] = primary HTS, 10 μM, fibrin-stimulated primary microglia
[7] = Rattus norvegicus, Microglia, primary HTS, 10 μM, LPS-stimulated primary microglia; read-out: LPS % inhibition
[8] = classification by fibrin and LPS inhibition, HTS at 10 μM
[9] = quadrant by fibrin and LPS inhibition in HTS of 1907 compounds
[10] = Rattus norvegicus, Microglia, read-out: LPS % inhibition
[11] = primary microglia HTS, fibrin stimulation, cell size >800 μm2 as marker of activation
[12] = Rattus norvegicus, Microglia, 48 h; read-out: LPS % inhibition
[13] = classification by fibrin and LPS inhibition in HTS
[14] = Rattus norvegicus, Microglia, 48 h, read-out: LPS % inhibition
[15] = primary microglia HTS, fibrin stimulation, increased cell size (>800 μm^2) as marker of activation
[16] = Rattus norvegicus, Microglia, 48 h, primary microglia HTS, LPS stimulation; increased cell size (>800 μm^2) as marker of activation; read-out: LPS % inhibition

Oc1c(Cl)cc(Cl)c2cccnc12 [Chloroxine]
inhibition at 10 µM [1, 6]: -17%
inhibition at 10 µM [2, 7]: 8%
Quadrant (FIG. 5b) ([3]; primary HTS, 10 μM): Q4
Fibrin % cell toxicity ([4]; rat): 1%
LPS % cell toxicity ([5]; rat): 0%

CC(C)(C)NCC(O)c1cc(Cl)c(N)c(Cl)c1 (stereo not drawn) [Clenbuterol]
inhibition at 10 µM [1, 6]: 11%
inhibition at 10 µM [2, 7]: 25%
Quadrant (FIG. 5b) ([3]; primary HTS, 10 μM): Q4
Fibrin % cell toxicity ([4]; rat): 1%
LPS % cell toxicity ([5]; rat): 0%

CC12CCC(CC1)C(C)(C)O2 [Eucalyptol]
inhibition at 10 µM ([1]; primary microglia HTS, fibrin stimulation, compounds at 10 μM): -15%
inhibition at 10 µM ([2]; Rattus norvegicus, Microglia, primary microglia HTS, LPS stimulation, compounds at 10 μM; read-out: LPS % inhibition): 9%
Quadrant (FIG. 5b) [3, 8]: Q4
Fibrin % cell toxicity ([4]; rat): 0%
LPS % cell toxicity ([5]; rat): 0%

CCOc1cc(NC(C)=O)ccc1C(=O)OC [Ethopabate]
Quadrant (FIG. 5b) [3]: Q4
Fibrin % cell toxicity ([4]; rat): 0%
LPS % cell toxicity ([5]; rat): 0%

CS(=O)(=O)CCNCc1ccc(-c2ccc3ncnc(Nc4ccc(OCc5cccc(F)c5)c(Cl)c4)c3c2)o1 [Lapatinib]
Quadrant (FIG. 5b) [3, 9]: Q4
Fibrin % cell toxicity ([4]; rat): 1%
LPS % cell toxicity ([5]; rat): 0%

CC(=O)Nc1ccc(O)cc1 [Acetaminophen]
inhibition at 10 µM [1]: 14%
inhibition at 10 µM [2, 10]: 22%
Fibrin % cell toxicity ([4]; rat): 0%
LPS % cell toxicity ([5]; rat): 0%

C[C@@H]1C[C@H]2[C@@H]3CCC4=CC(=O)C=C[C@]4(C)[C@@]3(F)[C@@H](O)C[C@]2(C)[C@@]1(O)C(=O)COP(=O)(O)O [Dexamethasone sodium phosphate, reference compound]
Quadrant (FIG. 5b) [3]: Q2
inhibition at 10 µM ([3]; read-out: Cherry-picked Hit (Suppl. Table 7)): > 50%
inhibition at 10 µM ([3]; read-out: Hit): > 50%
Fibrin % cell toxicity ([4]; rat): 2%
LPS % cell toxicity ([5]; rat): 3%

NC(=O)C(c1ccccc1)(c1ccccc1)[C@@H]1CCN(CCc2ccc3c(c2)CCO3)C1 [Darifenacin Hydrobromide]
Fibrin % cell toxicity ([4]; rat): 1%
LPS % cell toxicity ([5]; rat): 0%

C[C@@H]1O[C@@H](O[C@H]2C[C@@H](O)[C@]3(CO)[C@H]4[C@H](O)C[C@]5(C)[C@@H](C6=CC(=O)OC6)CC[C@]5(O)[C@@H]4CC[C@]3(O)C2)[C@H](O)[C@H](O)[C@H]1O [Ouabain]
Quadrant (FIG. 5b) [3, 9]: Q4
Fibrin % cell toxicity ([4]; rat): 0%
LPS % cell toxicity ([5]; rat): 0%

C[C@@H]1C[C@H]2[C@@H]3CCC4=CC(=O)C=C[C@]4(C)[C@@]3(F)[C@@H](O)C[C@]2(C)[C@@]1(O)C(=O)COP(=O)(O)O [Dexamethasone Phosphate]
Quadrant (FIG. 5b) [3, 9]: Q2
Fibrin % cell toxicity ([4]; rat): 5%
LPS % cell toxicity ([5]; rat): 2%

O=C(CCCCCCC(=O)Nc1ccccc1)NO [Vorinostat]
Quadrant (FIG. 5b) ([3]; quadrant by fibrin and LPS inhibition, HTS at 10 μM): Q2
Fibrin % cell toxicity ([4]; rat): 89%
LPS % cell toxicity ([5]; rat): 50%

Clc1ccc(CSC(Cn2ccnc2)c2ccc(Cl)cc2Cl)cc1 (stereo not drawn) [Sulconazole]
Quadrant (FIG. 5b) [3]: Q4
Fibrin % cell toxicity ([4]; rat): 1%
LPS % cell toxicity ([5]; rat): 1%

CC(=O)c1ccc2c(c1)N(CCCN1CCC(CCO)CC1)c1ccccc1S2 [Piperacetazine]
inhibition at 10 µM [1, 11]: -32%
inhibition at 10 µM [2, 12]: 48%
Quadrant (FIG. 5b) [3, 13]: Q4
Fibrin % cell toxicity ([4]; rat): 0%

CC1(C)NC(=O)N(c2ccc([N+](=O)[O-])c(C(F)(F)F)c2)C1=O [Nilutamide]
Quadrant (FIG. 5b) [3, 9]: Q4
Fibrin % cell toxicity ([4]; rat): 1%
LPS % cell toxicity ([5]; rat): 0%

CCC1(c2ccccc2)C(=O)NCNC1=O [Primidone]
inhibition at 10 µM [1]: -15%
inhibition at 10 µM [2, 14]: 12%
Quadrant (FIG. 5b) [3]: Q4
Fibrin % cell toxicity ([4]; rat): 1%

COc1cc2nc(N3CCN(C(=O)c4ccco4)CC3)nc(N)c2cc1OC [Prazosin]
inhibition at 10 µM [1, 15]: 43%
inhibition at 10 µM [2, 16]: 118%
Fibrin % cell toxicity ([4]; rat): 3%
LPS % cell toxicity ([5]; rat): 77%

CN1C2CCCC1CC(NC(=O)c1nn(C)c3ccccc13)C2 (stereo not drawn) [Granisetron Hydrochloride]
Quadrant (FIG. 5b) [3, 9]: Q4
Fibrin % cell toxicity ([4]; rat): 0%
LPS % cell toxicity ([5]; rat): 0%

CN[C@H]1CC[C@@H](c2ccc(Cl)c(Cl)c2)c2ccccc21 [Sertraline]
Quadrant (FIG. 5b) [3]: Q4
Fibrin % cell toxicity ([4]; rat): 1%
LPS % cell toxicity ([5]; rat): 0%

CC(C)OC(=O)C(C)(C)Oc1ccc(C(=O)c2ccc(Cl)cc2)cc1 [Fenofibrate]
Quadrant (FIG. 5b) [3, 8]: Q4
Fibrin % cell toxicity ([4]; rat): 1%
LPS % cell toxicity ([5]; rat): 0%

N[C@@H](Cc1cc(I)c(Oc2ccc(O)c(I)c2)c(I)c1)C(=O)O [Liothyronine]
inhibition at 10 µM [2, 14]: 21%
Quadrant (FIG. 5b) [3]: Q4
Fibrin % cell toxicity ([4]; rat): 1%
LPS % cell toxicity ([5]; rat): 1%

Clc1ccccc1CN1CCc2sccc2C1 [Ticlopidine]
inhibition at 10 µM [1]: -13%
inhibition at 10 µM [2, 10]: 22%
Fibrin % cell toxicity ([4]; rat): 1%
LPS % cell toxicity ([5]; rat): 0%

CC(=O)[O-].[Hg+][c]1ccccc1 [Phenylmercuric Acetate]
Fibrin % cell toxicity ([4]; rat): 82%
LPS % cell toxicity ([5]; rat): 80%

O=c1[nH]c(=O)n([C@H]2C[C@H](O)[C@@H](CO)O2)cc1F [Floxuridine]
Quadrant (FIG. 5b) [3, 9]: Q4
Fibrin % cell toxicity ([4]; rat): 1%
LPS % cell toxicity ([5]; rat): 0%

CN(C)CCCN1c2ccccc2CCc2ccccc21 [Imipramine]
inhibition at 10 µM [1, 15]: -4%
inhibition at 10 µM [2, 16]: 60%
Fibrin % cell toxicity ([4]; rat): 0%
LPS % cell toxicity ([5]; rat): 1%

Clc1ccc(CO/N=C(\Cn2ccnc2)c2ccc(Cl)cc2Cl)c(Cl)c1 [Oxiconazole]
Quadrant (FIG. 5b) [3]: Q4
Fibrin % cell toxicity ([4]; rat): 1%
LPS % cell toxicity ([5]; rat): 1%

CN1C2CCCC1CC(NC(=O)c1nn(C)c3ccccc13)C2 (stereo not drawn) [Granisetron]
Quadrant (FIG. 5b) [3, 9]: Q4
Fibrin % cell toxicity ([4]; rat): 1%
LPS % cell toxicity ([5]; rat): 0%

CC[C@H](C)C(=O)O[C@H]1C[C@@H](C)C=C2C=C[C@H](C)[C@H](CC[C@@H]3C[C@@H](O)CC(=O)O3)[C@H]21 [Lovastatin]
inhibition at 10 µM [1]: 106%
inhibition at 10 µM [2, 14]: 87%
Quadrant (FIG. 5b) [3]: Q2
Fibrin % cell toxicity ([4]; rat): 3%

CCN(CC)CCOC(=O)C1(C2CCCCC2)CCCCC1 [Dicyclomine]
Quadrant (FIG. 5b) [3]: Q4
Fibrin % cell toxicity ([4]; rat): 0%
LPS % cell toxicity ([5]; rat): 0%

C(=C\c1ccccc1)/CN1CCN(C(c2ccccc2)c2ccccc2)CC1 [Cinnarizine]
Quadrant (FIG. 5b) [3]: Q4
Fibrin % cell toxicity ([4]; rat): 1%
LPS % cell toxicity ([5]; rat): 0%

CN(C)CCC=C1c2ccccc2COc2ccccc21 [Doxepin]
LPS % inhibition ([2]; 10 µM): 13%
inhibition at 10 µM [2, 10]: 16%
Quadrant (FIG. 5b) [3]: Q4
Fibrin % cell toxicity ([4]; rat): 1%
LPS % cell toxicity ([5]; rat): 0%

Betamethasone sodium phosphate [reference compound]
Cherry-picked Hit (Suppl. Table 7) [3]: HIT (key: HIT: Hits were defined as molecules that exhibited greater than 50% inhibition of either fibrin or LPS activation)
Hit [3]: HIT (key: HIT: Hits were defined as molecules that exhibited greater than 50% inhibition of either fibrin or LPS activation)
Quadrant (FIG. 5b) [3]: Q2
Fibrin % cell toxicity [4]: 2%
LPS % cell toxicity [5]: 3%

CCCCCCCCCCCCCCCC[n+]1ccccc1 [Cetylpyridinium Bromide]
Quadrant (FIG. 5b) [3]: Q2
Fibrin % cell toxicity ([4]; rat): 25%
LPS % cell toxicity ([5]; rat): 39%

C=C1CC[C@H](O)C/C1=C/C=C1\CCC[C@]2(C)[C@@H]([C@H](C)CCCC(C)C)CC[C@@H]12 [Cholecalciferol]
Fibrin % inhibition [1, 6]: −10% and −17%
Quadrant (FIG. 5b) ([3]; primary HTS, 10 μM): Q4
Fibrin % cell toxicity ([4]; rat): 1%
LPS % cell toxicity ([5]; rat): 0%

Pyrethrins
Fibrin % cell toxicity [4]: 0%
LPS % cell toxicity [5]: 0%

CN(C)CCN(Cc1cccs1)c1ccccn1 [Methapyrilene]
Quadrant (FIG. 5b) [3]: Q4
Fibrin % cell toxicity ([4]; rat): 1%
LPS % cell toxicity ([5]; rat): 0%

[H]/N=C(/N)N/C(=N/[H])NCCc1ccccc1 [Phenformin]
inhibition at 10 µM [1]: -30%
inhibition at 10 µM [2, 14]: 13%
Quadrant (FIG. 5b) [3]: Q4
Fibrin % cell toxicity ([4]; rat): 1%

Cc1ccccc1C(OCCN(C)C)c1ccccc1 (stereo not drawn) [Orphenadrine]
Quadrant (FIG. 5b) [3]: Q4
Fibrin % cell toxicity ([4]; rat): 0%
LPS % cell toxicity ([5]; rat): 0%

O=C(O)c1ccccc1O [Salicylic Acid]
inhibition at 10 µM [1, 11]: -32%
inhibition at 10 µM [2, 12]: 14%
Quadrant (FIG. 5b) [3, 13]: Q4
Fibrin % cell toxicity ([4]; rat): 0%

C#C[C@]1(O)CC[C@H]2[C@@H]3CCC4=CC(=O)CC[C@@H]4[C@H]3CC[C@@]21C [Norethisterone]
Fibrin % inhibition [1]: 18%
LPS % inhibition [2]: 1%
Quadrant (FIG. 5b) [3]: Q4
Fibrin % cell toxicity ([4]; rat): 1%

Cinnarazine
Quadrant (FIG. 5b) [3]: Q4
Fibrin % cell toxicity [4]: 1%
LPS % cell toxicity [5]: 0%

CC(C)Cn1cnc2c(N)nc3ccccc3c21 [Imiquimod]
Quadrant (FIG. 5b) [3]: Q4
Fibrin % cell toxicity ([4]; rat): 0%
LPS % cell toxicity ([5]; rat): 0%
